Assay results taken from patent US20110224297A1, “Methods of administering prostratin and structural analogs thereof” (priority 2008, published 2011).
Where two headings read alike, the source gives them in different places.

Key:
[1] = system: resting CD4+ T cells derived from HIV positive patients; assay: Induction of HIV-1 expression in resting CD4+ T cells from HIV positive patients on HAART (p24, co-culture); type: cell-based, human
Protocol: The ability of prostratin to induce HIV-1 expression in cultures of highly purified resting CD4+ T cells derived from six HIV positive patients on HAART therapy with undetectable plasma viral load (<50 copies/ml) and CD4 cell counts above 350 cells/mm^3 was evaluated. PBMCs were separated using Ficol Hypaque gradient and resting CD4+ T cells were purified using commercially available CD4+ T cell isolation kit (Miltenyi Biotec) Immediately after purification, resting CD4+ T cells were treated for 3 days with two antiretrovirals to which the patient had not previously been exposed. Antiretrovirals were used at concentrations 10 times the 50% inhibitory concentration for wild-type HIV-1 to ensure elimination of any actively replicating virus. Three days after in vitro incubation with antiretrovirals, cells were washed and incubated for 5 h, 24 h, or 48 h with prostratin (50-500 ng/ml), in the absence or presence of 1 mM valproic acid (sodium salt, SIGMA), 10 μg/ml PHA (SIGMA), 50 U IL-2/ml (AIDS depository of reagents, NIH), or in the absence of drugs. At the end of each incubation period, cells were co-cultured with CD8-depleted PBMCs from healthy donors. P24 was measured at days 0, 4, 7, 14, 21, 28, 35 and 42 days.

[2] = Pharmacokinetics following intravenous and oral administration to rats; type: in vivo; settings: for Vd / half-life / bioavailability: male; for bioavailability: three male rats
Protocol: In order to find out the best route of administration and the correct concentration of prostratin, the drug was administered as an intravenous infusion over three hours as well as a single and twice oral administration to 3 groups of rats. The goal of this experiment was to find out if greater amounts of prostratin can be administered over a longer period of time. This would enable obtaining median higher concentrations in the blood for a longer period of time that would be close to effective concentration found in in vitro studies.

[3] = system: Escherichia coli tester strain WP2uvrA; assay: Escherichia coli/mammalian-microsome reverse mutation assay with confirmatory assay; type: cell-based; settings: 100 to 5000 μg per plate; presence or absence of S9
Source text: The objective of this study was to evaluate the test article, prostratin, for the ability to induce reverse mutations either in the presence or absence of mammalian microsomal enzymes at 1) the histidine locus in the genome of several strains of Salmonella typhimurium and at 2) the tryptophan locus of Escherichia coli tester strain WP2uvrA.
The doses tested in the mutagenicity assay were selected based on the results of a dose range finding study using tester strains TA100 and WP2uvrA and ten doses of test article ranging from 6.67 to 5000 μg per plate, one plate per dose, both in the presence and absence of S9 mix.
The tester strains used in the mutagenicity assay were Salmonella typhimurium tester strains TA98, TA100, TA1535, and TA1537 and Escherichia coli tester strain WP2uvrA. The assay was conducted with five doses of test article in both the presence and absence of S9 mix along with concurrent vehicle and positive controls using three plates per dose. The doses tested were 100, 333, 1000, 3330, and 5000 μg per plate in both the presence and absence of S9 mix. The results of the initial mutagenicity assay were confirmed in an independent experiment.

[4] = Pharmacokinetic studies in mice; type: in vivo, CD2F1 mice
Protocol: Studies were conducted in CD2F1 mice using both the i.p. route (1.9 mg/kg) and the i.v. route (0.76 mg/kg). The vehicle was 10% DMSO: 10% Cremophor: 80%:0.9% saline for both routes. Doses used were preciously determined as maximally tolerated. Drug was detected out to 4 hr but was only quantifiable out to 3 hr post drug administration (see FIG. 5A, B). Data are presented as mean±SD where n=5. Data that were detected beyond 3 hr post drug administration are shown as “BLQ” (below the limit of quantification of the validated assay). Data were fit using 1 and 2 compartment pharmacokinetic models using ADAPT II computer program. In general the 2-compartment model provided a better fit for the data than did a 1-compartment model (Table 2). […] For the two-compartment model the situation was reversed (i.e. more variance for the model predicted PK parameters with lower residual values for the individual plasma concentration data).

[5] = all three females, 1.2-mg/kg oral dose, males 2.4 mg/kg
[6] = female Animal No. C24047, 0.8 mg/kg i.v. infusion
[7] = female Animal No. C24048, 0.8 mg/kg i.v. infusion
[8] = female Animal No. C24049, 0.8 mg/kg i.v. infusion
[9] = female Animal No. C24050, 1.2-mg/kg oral dose, males 2.4 mg/kg
[10] = female Animal No. C24055, Group 3
[11] = mice, IP (1.9 mg/kg), 2-compartment model
[12] = mice, IV (0.76 mg/kg), 2-compartment model
[13] = mice, i.p. 1.9 mg/kg and i.v. 0.76 mg/kg

Q: With `CC(=O)O[C@@]12C[C@@H](C)[C@@]3(O)[C@@H](C=C(CO)C[C@]4(O)C(=O)C(C)=C[C@@H]34)[C@@H]1C2(C)C` [prostratin, 12-deoxyphorbol 13-acetate] as the molecule, how does the “HIV-1 expression in resting T cells” value ([1]; 50 ng/ml) read?
A: HIV-1 activation events, although with lower frequency

Q: What about the “time of co-culture with CD8-depleted PBMC after which robust HIV replication was observed” value ([1]; 24 h with 150 ng/ml) of the same molecule?
A: 2-4 weeks

Q: What about the “HIV-1 expression in resting T cells” value ([1]; ex-vivo treatment for 24 h with 150 ng/ml) of the same molecule?
A: efficient activation of the latent reservoir

Q: And the “mean AUC0-1.5 relative to mean value for the males” value [2, 5]?
A: ~5.5 fold

Q: What about the “mean Cmax relative to mean value for the males” value [2, 5] of the same molecule?
A: approximately 6.2 fold

Q: And the “AUC0-2 relative to mean AUC0-2 for the males” value [2, 6]?
A: approximately 4.2 fold

Q: And the “plasma concentration at approximately 2 hours relative to mean male Cmax” value [2, 6]?
A: approximately 3.8 fold

Q: And the “AUC0-2 relative to mean AUC0-2 for the males” value [2, 7]?
A: approximately 1.4 fold

Q: And the “plasma concentration at approximately 2 hours relative to mean male Cmax” value [2, 7]?
A: approximately 1.6 fold

Q: And the “AUC0-3.083 relative to mean value for the males” value [2, 8]?
A: ~2.6 fold

Q: What about the “Cmax relative to mean value for the males” value [2, 8] of the same molecule?
A: approximately 3.7 fold

Q: And the “AUC0-1.5 relative to mean value for the males” value [2, 9]?
A: ~8.2 fold

Q: What about the “Cmax relative to mean value for the males” value [2, 9] of the same molecule?
A: approximately 8.9 fold

Q: And the “AUC0-4 relative to mean value for the males” value ([2]; female Animal No. C24052, 1.2-mg/kg oral dose, males 2.4 mg/kg)?
A: approximately 9.6 fold

Q: And the “Cmax relative to mean value for the three males” value ([2]; female Animal No. C24055, 1.8 mg/kg then 1.0 mg/kg oral, Group 3)?
A: approximately 6.0 fold

Q: What about the “AUC0-1.5 relative to mean value for the three males” value [2, 10] of the same molecule?
A: ~5.9 fold

Q: What about the “AUC0-4 relative to mean value for the three males” value [2, 10] of the same molecule?
A: ~8.2 fold

Q: And the “AUC0-10 relative to mean AUC0-10 for the males” value ([2]; last female of Group 2, 1.2-mg/kg oral dose, males 2.4 mg/kg)?
A: approximately 6.1 fold

Q: And the “increase in exposure (mean AUC0-10) of 1.8-mg/kg BID versus single 2.4-mg/kg oral dose” value ([2]; male rats, Groups 3 and 2)?
A: approximately 1.5 fold

Q: What about the Vd ([2]; rat, plasma, iv, 0.8 mg/kg, male rats, 0.8 mg/kg i.v. infusion, read-out: mean Vss) of the same molecule?
A: 2.22 L/kg

Q: What about the Vd ([2]; rat, plasma, iv, 0.8 mg/kg, male rats, 0.8 mg/kg i.v. infusion, read-out: mean Vz) of the same molecule?
A: 6.41 L/kg

Q: What about the half-life ([2]; rat, plasma, iv, 0.8 mg/kg, male rats, after 3-hour intravenous infusion 0.8 mg/kg, read-out: mean t1/2 (converted)) of the same molecule?
A: 2.49 h

Q: What about the half-life ([2]; rat, plasma, po, 1.8 mg/kg, male Animal No. C24046, Group 3, 1.8 mg/kg BID oral, read-out: t1/2 (converted)) of the same molecule?
A: 7.47 h

Q: And the half-life ([2]; rat, plasma, po, 1.8 mg/kg, male rats, 1.8 mg/kg BID oral, after the second dose, read-out: mean t1/2 (converted))?
A: 4.07 h

Q: What about the half-life ([2]; rat, plasma, po, 2.4 mg/kg, male rats, single 2.4-mg/kg oral dose, read-out: mean t1/2 (converted)) of the same molecule?
A: 2.08 h

Q: And the bioavailability ([2]; rat, plasma, po, 2.4 mg/kg, single 2.4-mg/kg oral dose, read-out: Bioavailability (% F), mean)?
A: 13.3%

Q: What about the bioavailability ([2]; rat, plasma, po, 2.4 mg/kg, single 2.4-mg/kg oral dose, read-out: Bioavailability (% F), range) of the same molecule?
A: 7.7 to 23.1%

Q: What about the clearance ([2]; rat, plasma, iv, male rats, 0.8 mg/kg i.v. infusion, read-out: mean CL (converted)) of the same molecule?
A: 34.2 mL/min/kg

Q: What about the concentration at 4 h ([2]; rat, plasma, male rats, 1.8 mg/kg oral, Group 3, read-out: mean plasma concentration just prior to the second oral dose at 4 hours) of the same molecule?
A: 17.9 ng/mL

Q: What about the Cmax ([2]; rat, plasma, male rats, 0.8-mg/kg intravenous infusion over 3 hours) of the same molecule?
A: 159 ng/mL

Q: What about the Cmax ([2]; rat, plasma, male rats, 1.8-mg/kg oral doses BID, following the second dose) of the same molecule?
A: 55.1 ng/mL

Q: What about the Tmax ([2]; rat, plasma, male rats, 1.8-mg/kg oral doses BID, read-out: time at which Cmax was observed) of the same molecule?
A: 0.25 to 0.5 h

Q: And the Cmax ([2]; rat, plasma, male rats, single 2.4-mg/kg oral dose)?
A: 49.7 ng/mL

Q: What about the concentration at 4 h ([2]; rat, plasma, male rats, single 2.4-mg/kg oral dose, Group 2, read-out: mean plasma concentration at 4 hours postdose) of the same molecule?
A: 11.5 ng/mL

Q: And the “mean number of revertants per plate” value [3]?
A: did not cause a positive increase

Q: What about the clearance ([4]; CD2F1, mouse, plasma, intraperitoneal and intravenous, mice, both the i.p and i.v. routes) of the same molecule?
A: 200 to 250 mL/min/kg

Q: And the half-life ([4]; CD2F1, mouse, plasma, ip, 1.9 mg/kg, mice, IP (1.9 mg/kg), 2-compartment model, read-out: T1/2 a (converted))?
A: 0.34 h

Q: What about the half-life ([4]; CD2F1, mouse, plasma, ip, 1.9 mg/kg, mice, IP (1.9 mg/kg), 2-compartment model, read-out: T1/2 b (converted)) of the same molecule?
A: 210 h

Q: And the half-life ([4]; CD2F1, mouse, plasma, ip, 1.9 mg/kg, mice, IP (1.9 mg/kg), read-out: T1/2 [1-compartment model] (converted))?
A: 0.34 h

Q: What about the half-life ([4]; CD2F1, mouse, plasma, iv, 0.76 mg/kg, mice, IV (0.76 mg/kg), 2-compartment model, read-out: T1/2 a (converted)) of the same molecule?
A: 0.46 h

Q: And the half-life ([4]; CD2F1, mouse, plasma, iv, 0.76 mg/kg, mice, IV (0.76 mg/kg), 2-compartment model, read-out: T1/2 b (converted))?
A: 19.5 h

Q: What about the half-life ([4]; CD2F1, mouse, plasma, iv, 0.76 mg/kg, mice, IV (0.76 mg/kg), read-out: T1/2 [1-compartment model] (converted)) of the same molecule?
A: 0.53 h

Q: What about the CLt [4, 11] of the same molecule?
A: 219.2 mL/min/kg

Q: And the Vc [4, 11]?
A: 11.03 L/kg

Q: And the CLt [4, 12]?
A: 252.7 mL/min/kg

Q: And the Vc [4, 12]?
A: 17.32 L/kg

Q: And the “time out to which drug was detected in plasma” value [4, 13]?
A: 4 h

Q: What about the “time out to which drug was quantifiable in plasma” value [4, 13] of the same molecule?
A: 3 h

Q: And the maximally tolerated dose ([4]; mice, i.p. route)?
A: 1.9 mg/kg

Q: What about the maximally tolerated dose ([4]; mice, i.v. route) of the same molecule?
A: 0.76 mg/kg

Q: And the cumulative urinary excretion ([4]; pooled samples from five mice dosed i.p. (1.9 mg/kg), up to 24 hours)?
A: < 5 % of the administered dose
